This passage reports IC50 results from ChEMBL document CHEMBL1148627, “Design and synthesis of heterocyclic malonyl-CoA decarboxylase inhibitors” (Bioorg Med Chem Lett, 2006).

pIC50: −log10 of the molar value.

This assay addresses T1, Malonyl-CoA decarboxylase, mitochondrial (Homo sapiens, UniProt O95822).
T1 sequence (O95822 whole entry): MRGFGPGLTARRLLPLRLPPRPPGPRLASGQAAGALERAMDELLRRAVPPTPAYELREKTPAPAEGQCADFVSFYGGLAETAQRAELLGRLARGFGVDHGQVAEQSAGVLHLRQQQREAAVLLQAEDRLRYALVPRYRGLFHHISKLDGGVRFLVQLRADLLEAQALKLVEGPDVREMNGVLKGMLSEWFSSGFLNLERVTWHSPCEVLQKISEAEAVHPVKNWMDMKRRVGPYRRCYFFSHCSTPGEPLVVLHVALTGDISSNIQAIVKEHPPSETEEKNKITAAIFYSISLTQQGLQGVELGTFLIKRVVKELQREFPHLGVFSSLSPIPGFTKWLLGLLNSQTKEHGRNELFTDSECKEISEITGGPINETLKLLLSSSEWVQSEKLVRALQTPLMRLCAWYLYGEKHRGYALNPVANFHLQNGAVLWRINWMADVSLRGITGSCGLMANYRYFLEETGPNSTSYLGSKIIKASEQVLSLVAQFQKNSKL
Description: Inhibitory activity against recombinant human MCD MBP fusion protein.
Take `CCC(C)c1ncc(/C=C/C(=O)O)n1-c1ccc(C(O)(C(F)(F)F)C(F)(F)F)cc1` (stereo not drawn): the pIC50 – broadly, the IC50 on a negative log10 scale, so that one unit is a factor of ten – is 6.28. In the case of `CC(C)NC(=O)CCC1CN(Cc2cnc(C(C)C)n2-c2ccc(C(O)(C(F)(F)F)C(F)(F)F)cc2)CCO1` (stereo not drawn) it was 5.97; in that of `CCC(C)c1ncc(CNC(C)C)n1-c1ccc(C(O)(C(F)(F)F)C(F)(F)F)cc1` (stereo not drawn), 6.47; in that of `CC(C)c1nc(C(F)(F)F)cn1-c1ccc(C(O)(C(F)(F)F)C(F)(F)F)cc1`, 6.25. In the case of `CCCCNCc1cnc(C(C)C)n1-c1ccc(C(O)(C(F)(F)F)C(F)(F)F)cc1`, the negative logarithm of the IC50 (pIC50) was 6.32. In the case of `CC(C)c1nc(CO)cn1-c1ccc(C(O)(C(F)(F)F)C(F)(F)F)cc1` it was 6.61; in that of `CCC(C)c1ncc(CO)n1-c1ccc(C(O)(C(F)(F)F)C(F)(F)F)cc1` (stereo not drawn), 6.49; in that of `OCc1cnc(-c2ccccn2)n1-c1ccc(C(O)(C(F)(F)F)C(F)(F)F)cc1`, 6.10.
